Measured values taken from article PMC12711630 (Cell Reports. Physical Science, 2025).
Read-outs that look alike come from different tables or passages of the source. Marks after values point to notes of the source that are not given here.

Assays:
[1] = target: T1, (α4)2(β2)3 (HS isoform) α4β2 nAChR WT (Homo sapiens, UniProt P17787+P43681); assay: Two-electrode voltage clamp, Xenopus oocytes expressing HS α4β2 nAChR, wild type; assay type: cell-based
T1 construct: expressed in transfected cells; host or cells: Xenopus laevis oocytes, nuclear injection of cDNA in plasmid pCI (10 α4 : 1 β2 for LS, 1 α4 : 10 β2 for HS)
T1 sequence (P43681 27-627): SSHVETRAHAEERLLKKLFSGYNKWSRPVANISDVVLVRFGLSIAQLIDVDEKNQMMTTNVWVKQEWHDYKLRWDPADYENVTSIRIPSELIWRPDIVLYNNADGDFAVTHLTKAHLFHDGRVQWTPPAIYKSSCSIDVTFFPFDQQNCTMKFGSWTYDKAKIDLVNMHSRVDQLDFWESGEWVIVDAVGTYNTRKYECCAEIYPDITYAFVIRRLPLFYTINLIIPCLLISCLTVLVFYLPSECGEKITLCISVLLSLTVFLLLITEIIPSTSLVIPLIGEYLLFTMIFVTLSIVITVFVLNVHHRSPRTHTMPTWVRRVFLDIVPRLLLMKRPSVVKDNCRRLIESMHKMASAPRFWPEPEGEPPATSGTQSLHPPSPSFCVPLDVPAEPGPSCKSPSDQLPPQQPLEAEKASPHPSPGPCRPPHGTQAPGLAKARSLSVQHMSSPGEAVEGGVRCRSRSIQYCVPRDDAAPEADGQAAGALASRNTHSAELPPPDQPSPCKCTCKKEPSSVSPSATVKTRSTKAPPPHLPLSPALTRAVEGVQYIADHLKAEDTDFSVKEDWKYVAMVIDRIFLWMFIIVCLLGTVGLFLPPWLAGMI
T1 sequence (P17787 26-502): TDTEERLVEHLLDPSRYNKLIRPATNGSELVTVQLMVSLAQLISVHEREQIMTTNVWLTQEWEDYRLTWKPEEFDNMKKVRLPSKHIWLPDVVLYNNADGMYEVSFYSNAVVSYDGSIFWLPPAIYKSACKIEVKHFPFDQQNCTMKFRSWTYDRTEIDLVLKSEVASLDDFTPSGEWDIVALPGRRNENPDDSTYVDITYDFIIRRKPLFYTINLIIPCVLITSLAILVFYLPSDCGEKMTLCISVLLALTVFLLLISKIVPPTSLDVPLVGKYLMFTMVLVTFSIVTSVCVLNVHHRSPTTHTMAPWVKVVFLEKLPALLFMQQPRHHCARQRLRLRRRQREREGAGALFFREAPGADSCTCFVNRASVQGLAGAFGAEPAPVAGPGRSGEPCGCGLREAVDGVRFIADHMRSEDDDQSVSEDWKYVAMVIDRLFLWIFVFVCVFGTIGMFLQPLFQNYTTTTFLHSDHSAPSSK

[2] = target: T2, (α4)3(β2)2 (LS isoform) α4β2 nAChR WT (Homo sapiens, UniProt P17787+P43681); assay: Two-electrode voltage clamp, Xenopus oocytes expressing LS α4β2 nAChR, wild type; assay type: cell-based
T2 construct: expressed in transfected cells; host or cells: Xenopus laevis oocytes, nuclear injection of cDNA in plasmid pCI (10 α4 : 1 β2 for LS, 1 α4 : 10 β2 for HS)
T2 sequence (P43681 27-627): as the sequence (P43681 27-627) above
T2 sequence (P17787 26-502): as the sequence (P17787 26-502) above

[3] = target: T3, (α4)2(β2)3 (HS isoform) α4β2 nAChR (Homo sapiens, UniProt P17787+P43681); assay: Inhibition of ACh EC80 current responses, Xenopus oocytes, HS isoform; assay type: cell-based; conditions: co-applied with ACh EC80 30 µM
T3 construct: expressed in transfected cells; host or cells: Xenopus laevis oocytes, nuclear injection of cDNA in plasmid pCI (10 α4 : 1 β2 for LS, 1 α4 : 10 β2 for HS)
T3 sequence (P43681 27-627): as the sequence (P43681 27-627) above
T3 sequence (P17787 26-502): as the sequence (P17787 26-502) above

[4] = target: T4, (α4)3(β2)2 (LS isoform) α4β2 nAChR (Homo sapiens, UniProt P17787+P43681); assay: Inhibition of ACh EC80 current responses, Xenopus oocytes, LS isoform; assay type: cell-based; conditions: co-applied with ACh EC80 300 µM
T4 construct: expressed in transfected cells; host or cells: Xenopus laevis oocytes, nuclear injection of cDNA in plasmid pCI (10 α4 : 1 β2 for LS, 1 α4 : 10 β2 for HS)
T4 sequence (P43681 27-627): as the sequence (P43681 27-627) above
T4 sequence (P17787 26-502): as the sequence (P17787 26-502) above

[5] = target: T5, 5-HT3A receptor (Homo sapiens, UniProt P46098); assay: Inhibition of [3H]GR65630 binding, transfected HEK293 cell membranes; conditions: for IC50: n=3
T5 sequence (P46098 24-478): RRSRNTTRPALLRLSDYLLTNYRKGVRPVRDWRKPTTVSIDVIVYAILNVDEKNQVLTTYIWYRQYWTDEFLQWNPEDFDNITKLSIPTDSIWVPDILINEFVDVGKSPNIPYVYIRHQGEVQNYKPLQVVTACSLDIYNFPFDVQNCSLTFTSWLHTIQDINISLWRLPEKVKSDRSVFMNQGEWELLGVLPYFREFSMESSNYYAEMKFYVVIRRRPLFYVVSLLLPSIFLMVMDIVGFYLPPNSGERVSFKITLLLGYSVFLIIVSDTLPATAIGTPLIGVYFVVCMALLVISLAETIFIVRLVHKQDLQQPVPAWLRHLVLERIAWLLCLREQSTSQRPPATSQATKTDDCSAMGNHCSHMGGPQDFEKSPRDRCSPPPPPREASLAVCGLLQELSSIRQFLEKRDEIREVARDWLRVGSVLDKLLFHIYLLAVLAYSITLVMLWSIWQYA

[6] = target: T5, 5-HT3A receptor; assay: FlexStation fluorescent membrane-potential dye assay, transfected HEK 293 cells; assay type: cell-based; conditions: for EC50: n=4
[7] = physchem
[8] = target: T6, (α4)3(β2)2 (LS isoform) α4β2 nAChR α4T139V (Homo sapiens, UniProt P17787+P43681, T139V); assay: Two-electrode voltage clamp, Xenopus oocytes, LS α4β2 nAChR α4T139V; assay type: cell-based
T6 construct: expressed in transfected cells; host or cells: Xenopus laevis oocytes, nuclear injection of cDNA in plasmid pCI
T6 sequence (P43681 27-627 T139V): as the sequence (P43681 27-627) above, with T113V counted along it
T6 sequence (P17787 26-502): as the sequence (P17787 26-502) above

[9] = cited from earlier work
[10] = Spectrophotometric titration pKa determination
[11] = target: α4β2; conditions: read-out: affinity at α4β2; cited from earlier work

SMILES: c1cnc2nc3c(nc2n1)C1CNCC3C1 [N2 varenicline 6]
- RE [1]: 0.0010 ± 0.0001 ^a
- RE [2]: 0.0032 ± 0.0023 ^a
- IC50 [3]: > 1 mM
- IC50 [4]: > 1 mM
- fold increase of IC50 against [3H]GR65630 compared to varenicline 1 [5]: 250 fold
- IC50 ([5]; [3H]GR65630 0.3 nM, read-out: IC50, inhibition of [3H]GR65630 binding): 75.8 µM
- functional response at 5-HT3A receptors ([6]; concentrations up to 30 µM): No signiﬁcant responses
- pKa [7]: 7.31 ± 0.05

SMILES: c1cnc2cc3c(cc2n1)[C@@H]1CNC[C@H]3C1 [Varenicline 1, varenicline, reference compound]
- RE ([1]; Table 3, HS (α4)2(β2)3, relative to maximal ACh response): 0.14 ± 0.012
- RE ([2]; Table 3, LS (α4)3(β2)2, relative to maximal ACh response): 0.38 ± 0.025
- reduction of RE vs WT [8]: 50%
- IC50 ([5]; mean + SEM, read-out: pIC50, inhibition of [3H]GR65630 binding (converted)): 0.304 µM
- EC50 ([6]; EC50, activation of 5-HT3A receptors, membrane-potential sensitive dye): 400 nM
- EC50 ([6]; pEC50, activation of 5-HT3A receptors, mean + SEM): 437 nM
- pKa, literature value ([9]; ref Pfizer[80]): 9.2
- pKa, literature value ([9]; ref Rollema et al.[81]): 9.3
- pKa, literature value ([9]; ref Unal et al.[82]): 9.22 ± 0.13
- pKa [10]: 8.9 ± 0.1

SMILES: c1ccc2c(c1)C1CNCC2C1 [benzo variant, 2,3,4,5-tetrahydro-1H-1,5-methanobenzo[d]azepine]
- Ki [11]: 20 nM
